According to US20070249620A1, “Urea Derivative” (priority 2004, published 2007):

Assays:
[1] = biological target: T1, mouse DGAT1 (Mus musculus, UniProt Q9Z2A7); experiment: DGAT1 inhibitory effect test (microsome fraction, [14C]-oleoyl-CoA, triglyceride radioactivity by TLC); format: biochemical; settings: 0.5 h; concentration of the test compound 0.1 μg/ml; mouse DGAT1 microsomes, 23° C., 30 minutes; read-out: Inhibitory ratio
T1 construct: made in house; host or cells: insect cells (High Five, Sf9, Sf21, etc.), baculovirus expression system (Invitrogen)
T1 sequence (Q9Z2A7 1-498): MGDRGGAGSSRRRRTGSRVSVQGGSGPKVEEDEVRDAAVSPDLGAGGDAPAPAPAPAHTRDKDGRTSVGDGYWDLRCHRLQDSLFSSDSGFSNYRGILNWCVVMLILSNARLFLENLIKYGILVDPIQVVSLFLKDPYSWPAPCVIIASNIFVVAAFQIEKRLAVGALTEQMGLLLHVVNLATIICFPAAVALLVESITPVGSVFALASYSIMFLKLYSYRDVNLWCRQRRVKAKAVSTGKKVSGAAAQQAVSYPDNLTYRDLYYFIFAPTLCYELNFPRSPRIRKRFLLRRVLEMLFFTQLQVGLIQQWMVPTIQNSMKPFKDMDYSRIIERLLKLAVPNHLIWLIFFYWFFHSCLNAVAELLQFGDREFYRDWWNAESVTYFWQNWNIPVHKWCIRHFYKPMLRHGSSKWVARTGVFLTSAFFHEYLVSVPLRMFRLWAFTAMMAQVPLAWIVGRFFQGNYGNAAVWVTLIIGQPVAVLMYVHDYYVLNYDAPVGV
Outline: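 Inhibition was scored from radiolabelled triglyceride separated by TLC, relative to vehicle and net of a 0-min background. The reaction ran for 30 min at room temperature (23 °C) in Tris-HCl pH 8.0 with MgCl2, BSA and Triton X-100. Substrates were 30 μM [14C]-oleoyl-CoA and 0.5 mM dioleoylglycerol, with mouse DGAT1 microsomes from baculovirus-infected insect cells as enzyme.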

Structure (SMILES) | inhibition at 0.1 µg/mL [1] | melting point
COc1ccc(C)cc1NC(=O)Nc1ccc(N2CCN(C(=O)Nc3ccc(NC(C)=O)cc3C(F)(F)F)CC2)nc1 [Example 188, 4-{5-[3-(2-methoxy-5-methyl-phenyl)-ureido]-pyridin-2-yl}-piperazine-1-carboxylic acid (4-acetylamino-2-trifluoromethyl-phenyl)-amide] | ≥ 50% | 175 to 177 °C
COc1ccc(C)cc1NC(=O)Nc1ccc(N2CCN(C(=O)Nc3ccc(F)cc3C(F)(F)F)CC2)nc1 [Example 155, 4-{5-[3-(2-methoxy-5-methyl-phenyl)-ureido]-pyridin-2-yl}-piperazine-1-carboxylic acid (4-fluoro-2-trifluoromethyl-phenyl)-amide] | ≥ 50% | 186 to 187 °C
COc1ccc(C)cc1NC(=O)Nc1ccc(C2=CCN(C(=O)Nc3ccc(OCCO)cc3Cl)CC2)cc1 [Example 256, 4-{4-[3-(2-methoxy-5-methyl-phenyl)-ureido]-phenyl}-3,6-dihydro-2H-pyridine-1-carboxylic acid [2-chloro-4-(2-hydroxy-ethoxy)-phenyl]-amide] | ≥ 50% | 117 to 120 °C
COc1ccc(C)cc1NC(=O)Nc1ccc(N2CCN(C(=O)Nc3ccc(Cl)cc3C(F)(F)F)CC2)cc1 [Example 86, 4-{4-[3-(2-methoxy-5-methyl-phenyl)-ureido]-phenyl}-piperazine-1-carboxylic acid (4-chloro-2-trifluoromethyl-phenyl)-amide] | ≥ 50% | 186 to 187 °C
COc1ccc(C)cc1NC(=O)Nc1ccc2c(c1)CCN(C(=O)Nc1ccc(OCC(O)CO)cc1C(F)(F)F)C2 (centres unmarked) [Example 293, 6-[3-(2-methoxy-5-methyl-phenyl)-ureido]-3,4-dihydro-1H-isoquinoline-2-carboxylic acid [4-(2,3-dihydroxy-propoxy)-2-trifluoromethyl-phenyl]-amide] | ≥ 50% | 174 to 176 °C
COc1ccc(F)cc1NC(=O)Nc1ccc(N2CCN(C(=O)Nc3c(Cl)cccc3Cl)CC2)nc1 [Example 151, 4-{5-[3-(5-fluoro-2-methoxy-phenyl)-ureido]-pyridin-2-yl}-piperazine-1-carboxylic acid (2,6-dichloro-phenyl)-amide] | ≥ 50% | 228 °C
COc1ccc(Cl)cc1NC(=O)Nc1ccc(N2CCN(C(=O)Nc3ncccc3C)CC2)cc1 [Example 310, 4-{4-[3-(5-chloro-2-methoxy-phenyl)-ureido]-phenyl}-piperazine-1-carboxylic acid (3-methyl-pyridin-2-yl)-amide] | ≥ 50% | 163 to 165 °C
CCCCc1ccc(NC(=O)N2CCN(c3ccc(NC(=O)Nc4cc(C)ccc4OC)cc3)CC2)c(C)c1 [Example 75, 4-{4-[3-(2-methoxy-5-methyl-phenyl)-ureido]-phenyl}-piperazine-1-carboxylic acid (4-butyl-2-methyl-phenyl)-amide] | ≥ 50% | 172 to 173 °C
CC(C)(C)OC(=O)N1CCN(c2ccc(NC(=O)Nc3ccc(C(C)(C)C)cc3)cc2)CC1 [Example 33, 4-{4-[3-(4-tert-butyl-phenyl)-ureido]-phenyl}-piperazine-1-carboxylic acid tert-butyl ester] | ≥ 50% | 140 to 141 °C
COc1cccc(NC(=O)Nc2ccc(N3CCN(C(=O)Nc4ccc(OCCO)cc4Cl)CC3)cc2)c1 [Example 249, 4-{4-[3-(3-methoxy-phenyl)-ureido]-phenyl}-piperazine-1-carboxylic acid [2-chloro-4-(2-hydroxy-ethoxy)-phenyl]-amide] | ≥ 50% | 198 to 201 °C
COc1ccc(C)cc1NC(=O)Nc1ccc(N2CCN(C(=O)Nc3ccc(Br)cc3Cl)CC2)cc1 [Example 129, 4-{4-[3-(2-methoxy-5-methyl-phenyl)-ureido]-phenyl}-piperazine-1-carboxylic acid (4-bromo-2-chloro-phenyl)-amide] | ≥ 50% | 140 to 142 °C
COc1ccc(C)cc1NC(=O)Nc1ccc(N2CCN(C(=O)Nc3c(F)cccc3C(F)(F)F)CC2)cc1 [Example 64, 4-{4-[3-(2-methoxy-5-methyl-phenyl)-ureido]-phenyl}-piperazine-1-carboxylic acid (2-fluoro-6-trifluoromethyl-phenyl)-amide] | ≥ 50% | 134 to 136 °C

Now from value to compound:

inhibition at 0.1 µg/mL [1] | melting point | Structure (SMILES)
≥ 50% | 222 to 225 °C | CCOc1ccc(C)cc1NC(=O)Nc1ccc(N2CCN(C(=O)Nc3c(C)cccc3C)CC2)cc1 [Example 118, 4-{4-[3-(2-ethoxy-5-methyl-phenyl)-ureido]-phenyl}-piperazine-1-carboxylic acid (2,6-dimethyl-phenyl)-amide]
≥ 50% | 210 °C | CC(C)c1ccc(NC(=O)Nc2ccc(N3CCN(C(=O)OC(C)(C)C)CC3)cc2)cc1 [Example 22, 4-{4-[3-(4-isopropyl-phenyl)-ureido]-phenyl}-piperazine-1-carboxylic acid tert-butyl ester]
≥ 50% | 143 to 145 °C | COc1ccc(C)cc1NC(=O)Nc1ccc(N2CCN(C(=O)Nc3c(C)cccc3Cl)CC2)cc1 [Example 59, 4-{4-[3-(2-methoxy-5-methyl-phenyl)-ureido]-phenyl}-piperazine-1-carboxylic acid (2-chloro-6-methyl-phenyl)-amide]
≥ 50% | 229 to 230 °C | COc1ccc(F)cc1NC(=O)Nc1ccc(N2CCN(C(=O)Nc3ccccc3C(F)(F)F)CC2)cc1 [Example 96, 4-{4-[3-(5-fluoro-2-methoxy-phenyl)-ureido]-phenyl}-piperazine-1-carboxylic acid (2-trifluoromethyl-phenyl)-amide]
≥ 50% | 250 to 253 °C | O=C(Nc1ccc(N2CCN(C(=O)Nc3ccc(C(=O)O)cc3Cl)CC2)cc1)Nc1ccccc1F [Example 388, 3-chloro-4-[(4-{4-[3-(2-fluoro-phenyl)-ureido]-phenyl}-piperazine-1-carbonyl)-amino]-benzoic acid]
≥ 50% | 139 to 142 °C | COc1ccc(C)cc1NC(=O)Nc1ccc(C2=CCN(C(=O)Nc3cc(OCCO)ccc3Cl)CC2)cc1 [Example 273, 4-{4-[3-(2-methoxy-5-methyl-phenyl)-ureido]-phenyl}-3,6-dihydro-2H-pyridine-1-carboxylic acid [2-chloro-5-(2-hydroxy-ethoxy)-phenyl]-amide]
≥ 50% | 232 to 234 °C | Cc1cccc(Cl)c1NC(=O)N1CCN(c2ccc(NC(=O)Nc3ccccc3F)cc2)CC1 [Example 125, 4-{4-[3-(2-fluoro-phenyl)-ureido]-phenyl}-piperazine-1-carboxylic acid (2-chloro-6-methyl-phenyl)-amide]
≥ 50% | 110 to 112 °C | O=C(Nc1ccc(C2=CCN(C(=O)Nc3ccc(OCCO)cc3C(F)(F)F)CC2)cc1)Nc1ccccc1F [Example 229, 4-{4-[3-(2-fluoro-phenyl)-ureido]-phenyl}-3,6-dihydro-2H-pyridine-1-carboxylic acid [4-(2-hydroxy-ethoxy)-2-trifluoromethyl-phenyl]-amide]
≥ 50% | 202 to 203 °C | CCOc1ccccc1NC(=O)Nc1ccc(N2CCN(C(=O)Nc3ccc(OC)cc3C)CC2)cc1 [Example 110, 4-{4-[3-(2-ethoxy-phenyl)-ureido]-phenyl}-piperazine-1-carboxylic acid (4-methoxy-2-methyl-phenyl)-amide]
≥ 50% | > 260 °C (dec.) | Cc1ccccc1NC(=O)Nc1ccc(N2CCN(C(=O)Nc3c(C)cccc3Cl)CC2)cc1 [Example 127, 4-[4-(3-o-tolyl-ureido)-phenyl]-piperazine-1-carboxylic acid (2-chloro-6-methyl-phenyl)-amide]
≥ 50% | 140 to 143 °C | CCOc1cccc(NC(=O)Nc2ccc(N3CCN(C(=O)Nc4cc(OCCO)ccc4Cl)CC3)nc2)c1 [Example 236, 4-{5-[3-(3-ethoxy-phenyl)-ureido]-pyridin-2-yl}-piperazine-1-carboxylic acid [2-chloro-5-(2-hydroxy-ethoxy)-phenyl]-amide]
≥ 50% | 129 to 131 °C | COc1ccc(C)cc1NC(=O)Nc1ccc(N2CCN(C(=O)Nc3ccc(OCCO)cc3Cl)C(C)C2)cc1 (centres unmarked) [Example 252, 4-{4-[3-(2-methoxy-5-methyl-phenyl)-ureido]-phenyl}-2-methyl-piperazine-1-carboxylic acid [2-chloro-4-(2-hydroxy-ethoxy)-phenyl]-amide]
≥ 50% | 135 to 138 °C | COc1cccc(NC(=O)Nc2ccc(N3CCN(C(=O)Nc4ccc(OCCO)cc4C(F)(F)F)CC3)cc2)c1OC [Example 247, 4-{4-[3-(2,3-dimethoxy-phenyl)-ureido]-phenyl}-piperazine-1-carboxylic acid [4-(2-hydroxy-ethoxy)-2-trifluoromethyl-phenyl]-amide]
